From the supplement of paper PMC4862054

Key:
Conditions in all cases: incubation time: 72 h
MDA-MB-468 [1] = assay: normalised response (% of control), CellTiter-Glo; higher = more viable cells (100 = DMSO, 0 = benzethonium chloride kill control)
Summary of the method: (§1)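 Normalised signals at single concentrations make up the values. They come from breast cancer cell lines seeded (20 µl suspension) into 384-well plates with compound at 5 concentrations in 10-fold steps over a compound-specific 10,000-fold range, incubated 72 h, and read for CellTox Green fluorescence then CellTiter-Glo luminescence. Each plate was normalised to 0.1 % DMSO (100) and a positive kill control (0).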

SK-BR-3 [2] = assay: as above
Summary of the method: as §1

CAL-85-1 [3] = assay: as above
Summary of the method: as §1

CAL-51 [4] = assay: as above
Summary of the method: as §1

DU-4475 [5] = assay: as above
Summary of the method: as §1

HCC1143 [6] = assay: as above
Summary of the method: as §1

HCC1599 [7] = assay: as above
Summary of the method: as §1

HCC1937 [8] = assay: as above
Summary of the method: as §1

BT-549 [9] = assay: as above
Summary of the method: as §1

BT-474 [10] = assay: as above
Summary of the method: as §1

MDA-MB-231 [11] = assay: as above
Summary of the method: as §1

Hs578T [12] = assay: as above
Summary of the method: as §1

CAL-148 [13] = assay: as above
Summary of the method: as §1

MDA-MB-453 [14] = assay: as above
Summary of the method: as §1

CAL-120 [15] = assay: as above
Summary of the method: as §1

MCF-10A = assay: as above
Summary of the method: as §1

MDA-MB-436 [16] = assay: as above
Summary of the method: as §1

MFM-223 [17] = assay: as above
Summary of the method: as §1

HDQ-P1 [18] = assay: as above
Summary of the method: as §1

MDA-MB-468 [19] = assay: normalised viability (% of control), CellTiter-Blue; higher = more viable cells (100 = DMSO, 0 = benzethonium chloride kill control)
Procedure: (§2)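 DSRT, CellTiter-Blue viability, 72 h incubation. Signal is normalised to DMSO and benzethonium chloride controls. Value is the normalised response at dose 1.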

SK-BR-3 [20] = assay: as above
Procedure: as §2

CAL-85-1 [21] = assay: as above
Procedure: as §2

CAL-51 [22] = assay: as above
Procedure: as §2

DU-4475 [23] = assay: as above
Procedure: as §2

HCC1143 [24] = assay: as above
Procedure: as §2

HCC1599 [25] = assay: as above
Procedure: as §2

HCC1937 [26] = assay: as above
Procedure: as §2

BT-549 [27] = assay: as above
Procedure: as §2

BT-474 [28] = assay: as above
Procedure: as §2

MDA-MB-231 [29] = assay: as above
Procedure: as §2

Hs578T [30] = assay: as above
Procedure: as §2

CAL-148 [31] = assay: as above
Procedure: as §2

MDA-MB-453 [32] = assay: as above
Procedure: as §2

CAL-120 [33] = assay: as above
Procedure: as §2

MDA-MB-436 [34] = assay: as above
Procedure: as §2

MFM-223 [35] = assay: as above
Procedure: as §2

HDQ-P1 [36] = assay: as above
Procedure: as §2

CAL-85-1 [37] = assay: normalised viability (% of control), CellTiter-Blue; higher = more viable cells (about 100 = DMSO control)
Procedure: (§3)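 DSRT, CellTiter-Blue viability, 72 h incubation. Signal is normalised to DMSO and benzethonium chloride controls. Value is the normalised response at dose 9.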

CAL-51 [38] = assay: as above
Procedure: as §3

DU-4475 [39] = assay: as above
Procedure: as §3

CAL-148 [40] = assay: as above
Procedure: as §3

MDA-MB-453 [41] = assay: as above
Procedure: as §3

HDQ-P1 [42] = assay: as above
Procedure: as §3

How did the normalised response (MDA-MB-468 [1]) turn out when `CN1CCC(COc2cnc(-c3cccc(Cn4nc(-c5cccc(C#N)c5)ccc4=O)c3)nc2)CC1` (1 nM) was run?
The normalised response was 92.3%.

What about the normalised response (SK-BR-3 [2]) of the same compound?
Its normalised response is 71%.

And the normalised response (CAL-85-1 [3])?
The normalised response was 90.4%.

What about the normalised response (CAL-51 [4]) of the same compound?
Its normalised response is 127%.

And the normalised response (DU-4475 [5])?
Its normalised response is 100%.

And the normalised response (HCC1143 [6])?
Its normalised response is 102%.

And the normalised response (HCC1599 [7])?
The normalised response was 112%.

And the normalised response (HCC1937 [8])?
The normalised response was 103%.

What about the normalised response (BT-549 [9]) of the same compound?
Its normalised response is 93.5%.

What about the normalised response (BT-474 [10]) of the same compound?
Its normalised response is 101%.

What about the normalised response (MDA-MB-231 [11]) of the same compound?
The normalised response was 95.1%.

And the normalised response (Hs578T [12])?
The normalised response was 96.7%.

What about the normalised response (CAL-148 [13]) of the same compound?
The normalised response was 97.8%.

What about the normalised response (MDA-MB-453 [14]) of the same compound?
The normalised response was 91.3%.

And the normalised response (CAL-120 [15])?
Its normalised response is 99.1%.

And the normalised response (MCF-10A)?
The normalised response was 93.9%.

What about the normalised response (MDA-MB-436 [16]) of the same compound?
Its normalised response is 91.4%.

What about the normalised response (MFM-223 [17]) of the same compound?
The normalised response was 93.6%.

What about the normalised response (HDQ-P1 [18]) of the same compound?
Its normalised response is 95.3%.

And the normalised viability (MDA-MB-468 [19])?
Its normalised viability is 92.5%.

And the normalised viability (SK-BR-3 [20])?
Its normalised viability is 96.4%.

And the normalised viability (CAL-85-1 [21])?
Its normalised viability is 99.6%.

And the normalised viability (CAL-51 [22])?
Its normalised viability is 90.5%.

What about the normalised viability (DU-4475 [23]) of the same compound?
The normalised viability was 100%.

And the normalised viability (HCC1143 [24])?
Its normalised viability is 110%.

And the normalised viability (HCC1599 [25])?
Its normalised viability is 110%.

What about the normalised viability (HCC1937 [26]) of the same compound?
Its normalised viability is 86.7%.

What about the normalised viability (BT-549 [27]) of the same compound?
Its normalised viability is 93.2%.

And the normalised viability (BT-474 [28])?
The normalised viability was 83.7%.

What about the normalised viability (MDA-MB-231 [29]) of the same compound?
Its normalised viability is 77.3%.

What about the normalised viability (Hs578T [30]) of the same compound?
The normalised viability was 98.4%.

What about the normalised viability (CAL-148 [31]) of the same compound?
Its normalised viability is 89.6%.

What about the normalised viability (MDA-MB-453 [32]) of the same compound?
Its normalised viability is 104%.

What about the normalised viability (CAL-120 [33]) of the same compound?
The normalised viability was 102%.

And the normalised viability (MDA-MB-436 [34])?
The normalised viability was 98.7%.

And the normalised viability (MFM-223 [35])?
Its normalised viability is 101%.

What about the normalised viability (HDQ-P1 [36]) of the same compound?
The normalised viability was 77.4%.

Which normalised viability (CAL-85-1 [37]) does the source give for `CN1CCC(COc2cnc(-c3cccc(Cn4nc(-c5cccc(C#N)c5)ccc4=O)c3)nc2)CC1` (10000 nM) here?
Its normalised viability is 6.29%.

What about the normalised viability (CAL-51 [38]) of the same compound?
Its normalised viability is 6.25%.

And the normalised viability (DU-4475 [39])?
The normalised viability was 2.2%.

And the normalised viability (CAL-148 [40])?
Its normalised viability is 25.8%.

And the normalised viability (MDA-MB-453 [41])?
The normalised viability was 3.23%.

What about the normalised viability (HDQ-P1 [42]) of the same compound?
The normalised viability was 4.94%.

What does the source list for `CN(C)C/C=C/C(=O)Nc1cc2c(Nc3ccc(F)c(Cl)c3)ncnc2cc1O[C@H]1CCOC1` [Afatinib] (1 nM)?
normalised response (MDA-MB-468 [1]): 109%; normalised response (SK-BR-3 [2]): 98.9%; normalised response (CAL-85-1 [3]): 108%; normalised response (CAL-51 [4]): 116%; normalised response (DU-4475 [5]): 109%; normalised response (HCC1143 [6]): 106%; normalised response (HCC1599 [7]): 104%; normalised response (HCC1937 [8]): 97.2%; normalised response (BT-549 [9]): 96.9%; normalised response (BT-474 [10]): 97.5%; normalised response (MDA-MB-231 [11]): 97.7%; normalised response (Hs578T [12]): 96.5%; normalised response (CAL-148 [13]): 90.3%; normalised response (MDA-MB-453 [14]): 112%; normalised response (CAL-120 [15]): 94.4%; normalised response (MCF-10A): 92.7%; normalised response (MDA-MB-436 [16]): 105%; normalised response (MFM-223 [17]): 97.8%; normalised response (HDQ-P1 [18]): 98.4%; normalised viability (MDA-MB-468 [19]): 107%; normalised viability (SK-BR-3 [20]): 89.2%; normalised viability (CAL-85-1 [21]): 82%; normalised viability (CAL-51 [22]): 109%; normalised viability (DU-4475 [23]): 96.4%; normalised viability (HCC1143 [24]): 83.8%; normalised viability (HCC1599 [25]): 84.5%; normalised viability (HCC1937 [26]): 85.4%; normalised viability (BT-549 [27]): 111%; normalised viability (BT-474 [28]): 85.9%; normalised viability (MDA-MB-231 [29]): 92.4%; normalised viability (Hs578T [30]): 102%; normalised viability (CAL-148 [31]): 106%; normalised viability (MDA-MB-453 [32]): 101%; normalised viability (CAL-120 [33]): 69.7%; normalised viability (MDA-MB-436 [34]): 88.4%; normalised viability (MFM-223 [35]): 93.2%; normalised viability (HDQ-P1 [36]): 74.3%

What does the source list for `CN(C)C/C=C/C(=O)Nc1cc2c(Nc3ccc(F)c(Cl)c3)ncnc2cc1O[C@H]1CCOC1` [Afatinib] (10000 nM)?
normalised viability (CAL-85-1 [37]): 13.6%; normalised viability (CAL-51 [38]): 50.6%; normalised viability (DU-4475 [39]): 67.8%; normalised viability (CAL-148 [40]): 40.7%; normalised viability (MDA-MB-453 [41]): 14.4%; normalised viability (HDQ-P1 [42]): 4.6%
